In patent US20060069132A1, “Azolecarboxamide herbicides” (priority 2004, published 2006):

Columns and labels:
Surinam grass = assay: Test B pre-/postemergence herbicide test; format: in vivo, Urochloa decumbens; details: for Surinam Grass plant response rating: postemergence
Method in brief: (§1)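 Formulation: non-phytotoxic solvent mix with surfactant. Timing: preemergence on seed and postemergence on 2–18 cm plants, applied concurrently. Readout after 13–15 d greenhouse: visual 0–100 control rating against controls.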

rice [1] = assay: Test C flooded paddy test; format: in vivo, Oryza sativa
Method in brief: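 Injury scored visually against controls on a 0 (no effect) to 100 (complete control) scale, 12 to 14 days after treatment in greenhouse. Flooded paddy plants treated at 2-leaf stage; postemergence plants at 1- to 4-leaf stage, 2 to 18 cm tall.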

large crabgrass = assay: Test B pre-/postemergence herbicide test; format: in vivo, Digitaria sanguinalis; details: for Crabgrass, Large plant response rating: postemergence
Method in brief: as §1

blackgrass = assay: Test B postemergence herbicide test; format: in vivo, Alopecurus myosuroides; details: postemergence, visual rating, scale 0 (no effect) to 100 (complete control)
Method in brief: (§2)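 Visual control ratings, 0–100 versus untreated controls, taken after 13 to 15 days in the greenhouse. Blackgrass received a postemergence spray at the 1- to 4-leaf stage (2–18 cm); ducksalad, umbrella sedge and barnyardgrass were flooded-paddy treated at 2 leaves.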

[2] = tested on: small flower umbrella sedge; assay: Test B flooded paddy test; format: in vivo, Cyperus difformis; details: 1000 g ai/ha, scale 0 to 100 (0 no effect, 100 complete control)
Method in brief: as §2

wild oat = assay: Test B postemergence herbicide test; format: in vivo, Avena fatua; details: postemergence
Method in brief: (§3)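 Formulated test chemicals went onto postemergence plants measuring 2 to 18 cm, at one to four leaves. For the paddy assay, species had reached two leaves. Scoring took place 13–15 days later by eye, relative to untreated plants, using 0 for no effect up to 100 for full control.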

rice [3] = assay: Test B flooded paddy test; format: in vivo, Oryza sativa; details: 1000 g ai/ha, scale 0 to 100 (0 no effect, 100 complete control)
Method in brief: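 Scale 0–100: zero equals no visible effect, 100 complete control, judged by eye relative to controls. Timing: 13 to 15 days in greenhouse post-treatment. Growth stage at spraying: two leaves (paddy) or one to four leaves, 2–18 cm (postemergence).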

barnyardgrass [4] = assay: Test B pre-/postemergence herbicide test; format: in vivo, Echinochloa crus-galli; details: for Barnyardgrass plant response rating: postemergence, scale 0 (no effect) to 100 (complete control)
Method in brief: (§4)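 Response was scored visually 13 to 15 days after treatment against untreated greenhouse controls, 0 meaning no effect and 100 complete control. Formulations (solvent mixture plus surfactant) went onto soil after planting, onto foliage of 1- to 4-leaf plants, and onto 2-leaf plants in a flooded paddy set including rice and barnyardgrass.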

barnyardgrass [5] = assay: Test B flooded paddy test; format: in vivo, Echinochloa crus-galli; details: 1000 g ai/ha, scale 0 to 100 (0 no effect, 100 complete control)
Method in brief: as §2

velvetleaf = assay: Test B pre-/postemergence herbicide test; format: in vivo, Abutilon theophrasti; details: for Velvetleaf plant response rating: postemergence
Method in brief: as §1

morningglory = assay: Test B pre-/postemergence herbicide test; format: in vivo, Ipomoea coccinea; details: for Morningglory plant response rating: postemergence
Method in brief: as §4

giant foxtail = assay: Test B pre-/postemergence herbicide test; format: in vivo, Setaria faberi; details: for Foxtail, Giant plant response rating: postemergence
Method in brief: as §1

pigweed = assay: Test B pre-/postemergence herbicide test; format: in vivo, Amaranthus retroflexus; details: for Pigweed plant response rating: postemergence
Method in brief: as §1

wheat = assay: Test B postemergence herbicide test; format: in vivo, Triticum aestivum; set-up: key to Wheat plant response rating: 0 = no effect, 100 = complete control; details: postemergence
Method in brief: as §3

corn = assay: Test B pre-/postemergence herbicide test; format: in vivo, Zea mays; details: for Corn plant response rating: postemergence
Method in brief: as §1

ducksalad [6] = assay: Test C flooded paddy test; format: in vivo, Heteranthera limosa
cocklebur = assay: Test B pre-/postemergence herbicide test; format: in vivo, Xanthium strumarium; details: for Cocklebur plant response rating: postemergence, scale 0 (no effect) to 100 (complete control)
Method in brief: as §4

barnyardgrass [7] = assay: Test C flooded paddy test; format: in vivo, Echinochloa crus-galli
Method in brief: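 Greenhouse test with a 12–14 day hold after application and visual comparison with controls. Emerged plants were 1- to 4-leaf stage (2–18 cm) when sprayed postemergence, and the paddy barnyardgrass was at 2 leaves under flooded conditions. 100 = complete control.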

[8] = tested on: smallflower umbrella sedge; assay: Test C flooded paddy test; format: in vivo, Cyperus difformis
rice [9] = assay: Test B pre-/postemergence herbicide test; format: in vivo, Oryza sativa; details: 0 = no effect, 100 = complete control, preemergence
Method in brief: as §1

ducksalad [10] = assay: Test B flooded paddy test; format: in vivo, Heteranthera limosa; details: 1000 g ai/ha, scale 0 to 100 (0 no effect, 100 complete control)
Method in brief: as §2

lambsquarters = assay: Test B pre-/postemergence herbicide test; format: in vivo, Chenopodium album; details: for Lambsquarters plant response rating: postemergence
Method in brief: as §1

[11] = 125 g ai/ha, 0 = no effect, 100 = complete control, preemergence
[12] = 500 g ai/ha, visual rating, 0 = no effect, 100 = complete control, preemergence
[13] = 125 g ai/ha, visual rating, scale 0 (no effect) to 100 (complete control)
[14] = 500 g ai/ha, scale 0 to 100, 0 is no effect, 100 is complete control
[15] = 125 g ai/ha, scale 0 to 100 (0 no effect, 100 complete control)
[16] = 250 g ai/ha, scale of 0 to 100, 0 is no effect, 100 is complete control
[17] = 500 g ai/ha, visual rating after 12 to 14 days, scale 0 to 100 (0 no effect, 100 complete control)

SMILES: CCn1nc(C(C)(C)C)cc1C(=O)Nc1cncc(C(=O)N(C)C)c1 [Compound 258]
- Surinam Grass plant response rating (0 to 100 scale) (Surinam grass; [11]): 0
- Plant response rating, Surinam Grass (Surinam grass; [12]): 30
- Surinam Grass plant response rating (Surinam grass; [13]): 0
- Surinam Grass plant response rating (Surinam grass; [14]): 10
- Rice plant response rating (rice [1]; 62 g ai/ha, scale 0 to 100): 0
- Rice plant response rating (rice [1]; [15]): 0
- Rice plant response rating (rice [1]; [16]): 5
- Plant response rating, Rice (rice [1]; [17]): 70
- Crabgrass, Large plant response rating (0 to 100 scale) (large crabgrass; [11]): 10
- Plant response rating, Crabgrass, Large (large crabgrass; [12]): 50
- Crabgrass, Large plant response rating (large crabgrass; [13]): 0
- Crabgrass, Large plant response rating (large crabgrass; [14]): 0
- Blackgrass plant response rating (blackgrass; 125 g ai/ha): 10
- Blackgrass plant response rating (blackgrass; 500 g ai/ha): 10
- Sedge, Umbrella plant response rating [2]: 70
- Oat, Wild plant response rating (wild oat; [13]): 20
- Oat, Wild plant response rating (wild oat; [14]): 30
- Rice plant response rating (rice [3]): 80
- Barnyardgrass plant response rating (0 to 100 scale) (barnyardgrass [4]; [11]): 70
- Plant response rating, Barnyardgrass (barnyardgrass [4]; [12]): 90
- Barnyardgrass plant response rating (barnyardgrass [4]; 125 g ai/ha, visual rating): 0
- Barnyardgrass plant response rating (barnyardgrass [4]; 500 g ai/ha, visual rating): 0
- Barnyardgrass plant response rating (barnyardgrass [5]): 70
- Velvetleaf plant response rating (0 to 100 scale) (velvetleaf; [11]): 0
- Plant response rating, Velvetleaf (velvetleaf; [12]): 60
- Velvetleaf plant response rating (velvetleaf; [13]): 0
- Velvetleaf plant response rating (velvetleaf; [14]): 0
- Morningglory plant response rating (0 to 100 scale) (morningglory; [11]): 0
- Plant response rating, Morningglory (morningglory; [12]): 10
- Morningglory plant response rating (morningglory; [13]): 0
- Morningglory plant response rating (morningglory; [14]): 10
- Foxtail, Giant plant response rating (0 to 100 scale) (giant foxtail; [11]): 0
- Plant response rating, Foxtail, Giant (giant foxtail; [12]): 20
- Foxtail, Giant plant response rating (giant foxtail; [13]): 0
- Foxtail, Giant plant response rating (giant foxtail; [14]): 0
- Pigweed plant response rating (0 to 100 scale) (pigweed; [11]): 0
- Plant response rating, Pigweed (pigweed; [12]): 100
- Pigweed plant response rating (pigweed; [13]): 50
- Pigweed plant response rating (pigweed; [14]): 60
- Wheat plant response rating (wheat; [13]): 20
- Wheat plant response rating (wheat; [14]): 20
- Corn plant response rating (0 to 100 scale) (corn; [11]): 0
- Plant response rating, Corn (corn; [12]): 0
- Corn plant response rating (corn; [13]): 0
- Corn plant response rating (corn; [14]): 10
- Ducksalad plant response rating (ducksalad [6]; 62 g ai/ha, scale 0 to 100): 15
- Ducksalad plant response rating (ducksalad [6]; [15]): 45
- Ducksalad plant response rating (ducksalad [6]; [16]): 70
- Plant response rating, Ducksalad (ducksalad [6]; [17]): 90
- Cocklebur plant response rating (0 to 100 scale) (cocklebur; [11]): 0
- Plant response rating, Cocklebur (cocklebur; [12]): 0
- Cocklebur plant response rating (cocklebur; 125 g ai/ha, visual rating): 20
- Cocklebur plant response rating (cocklebur; 500 g ai/ha, visual rating): 30
- Barnyardgrass plant response rating (barnyardgrass [7]; 62 g ai/ha, scale 0 to 100 (0 no effect, 100 complete control)): 0
- Barnyardgrass plant response rating (barnyardgrass [7]; [15]): 0
- Barnyardgrass plant response rating (barnyardgrass [7]; [16]): 15
- Plant response rating, Barnyardgrass (barnyardgrass [7]; [17]): 45
- Sedge, Umbrella plant response rating ([8]; 62 g ai/ha, scale 0 to 100): 0
- Sedge, Umbrella plant response rating [8, 15]: 20
- Sedge, Umbrella plant response rating [8, 16]: 70
- Plant response rating, Sedge, Umbrella [8, 17]: 80
- Rice plant response rating (0 to 100 scale) (rice [9]; 125 g ai/ha): 20
- Plant response rating, Rice (rice [9]; 500 g ai/ha, visual rating): 90
- Ducksalad plant response rating (ducksalad [10]): 90
- Plant response rating, Lambsquarters (lambsquarters; [12]): 100
- Lambsquarters plant response rating (lambsquarters; [13]): 30
- Lambsquarters plant response rating (lambsquarters; [14]): 70
